Assay: recombinant barcode read abundance after kanamycin selection (control-corrected) (log10(CPM+1)); higher = more efficient recombination; sequences stand for … in AGTGCAGAGAAAATCGGCCAGTTTTCTCTGCCTGCAGTCCGCATGCCGT…AGATTTATGCAGCGGACTGCCTTTCTCCCAAAGTGATAAACCGGACAGTATCATGGACCGGTTTTCCCGGTAATCCGTATTTGCAAGGTTGGTTTCACT; site = the 11-nt target
Outline: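 Recombination efficiency was calculated from barcode counts at recombinant junctions, normalized to counts per million, averaged and corrected by the control. Each value is given as log10(CPM+1). The constructs were Gibson-cloned oligos (promoter, target, barcode, J23119-driven first 104 bridge RNA bases) in a vector with the remaining 73 bp and a T7-inducible recombinase, co-electroporated into E. coli with a donor plasmid and plated in duplicate on chloramphenicol/ampicillin LB agar (control) or chloramphenicol/ampicillin/kanamycin with 0.1 mM IPTG.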
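Note: IS621 recombinase and bridge RNA in Escherichia coli cells.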

Row | Sequence | recombinant barcode read abundance (log10)
1 | TGGCGTCCTTGGGTTCTAACCTGTTGCCT (site TGGTGTCCTAG) | 0.116
2 | ACATTAGCTTGGGTTCTAACCTGTTGCTG (site ACAATAGCTCA) | 0.182
3 | GCAGTAGCTTGGGTTCTAACCTGTTGCCA (site CCGGTAGCTTG) | 0.188
4 | ACGACTCCTTGGGTTCTAACCTGTTGCTG (site ACGCCTCCTCA) | 0.0825
5 | TCACTTGCTTGGGTTCTAACCTGTTGCCT (site TCACTTGCTAG) | 0.215
6 | TTGTCGTCTTGGGTTCTAACCTGTTGCCT (site TTGTCGTCTAG) | 1.25
7 | ACCACGCCTTGGGTTCTAACCTGTTGCCT (site ATCACGCCTAG) | 0.0537
8 | GTATATACTTGGGTTCTAACCTGTTGCTT (site ACGGGGCCTCG) | 0.0368
9 | CAGGCGGCTTGGGTTCTAACCTGTTGCCT (site CAGGCGTCTAG) | 0.0685
10 | GTCAGATCTTGGGTTCTAACCTGTTGCTT (site GTCAGATCTAA) | 0.398
11 | GACACAGCTTGGGTTCTAACCTGTTGCCT (site GACACAGCTAG) | 1.26
12 | ATGCGAGCTTGGGTTCTAACCTGTTGCCG (site ATGCGAGCTCA) | 0.177
13 | CTTTCGCCTTGGGTTCTAACCTGTTGCCT (site CTATCGCCTAG) | 0.0688
14 | ACATGTCCTTGGGTTCTAACCTGTTGCTT (site ACATGTCCTAC) | 0.0155
15 | CAGTGGACTTGGGTTCTAACCTGTTGCCT (site CACTGGACTAG) | 0.101
16 | CTAGCCACTTGGGTTCTAACCTGTTGCTA (site CTAGCGACTCA) | 0.38
17 | TCCGTGCCTTGGGTTCTAACCTGTTGCCT (site TCCGTGCCTAG) | 0.598
18 | GTCTTACCTTGGGTTCTAACCTGTTGCCT (site GTCCTACCTAG) | 1.21
19 | AAGACAACTTGGGTTCTAACCTGTTGCGG (site AAGACAACTCC) | 1.64
20 | AACCATCCTTGGGTTCTAACCTGTTGCCT (site AACCATCCTAG) | 1.51
21 | TGCGTCCCTTGGGTTCTAACCTGTTGCCT (site TGAGTCCCTAG) | 0.405
22 | GATGTAACTTGGGTTCTAACCTGTTGCCT (site GACGTAACTAG) | 0.101

Row | Sequence | recombinant barcode read abundance (log10)
23 | CTGCATACTTGGGTTCTAACCTGTTGCCT (site CGGCATACTAG) | 0.0131
24 | CACAACACTTGGGTTCTAACCTGTTGCCT (site CACATCACTAG) | 0.0296
25 | TCCTCTCCTTGGGTTCTAACCTGTTGCTT (site TGCCCTCCTAA) | 0.0451
26 | TCGTTGCCTTGGGTTCTAACCTGTTGCCT (site TCGTTGCCTAG) | 0.533
27 | CGCTGATCTTGGGTTCTAACCTGTTGCCT (site TGCTGATCTAG) | 0.0802
28 | CTCTGAGCTTGGGTTCTAACCTGTTGCAG (site CTCTGAGCTCT) | 0.538
29 | GCACTACCTTGGGTTCTAACCTGTTGCCT (site GCACAACCTAG) | 0.0611
30 | CATAGTCCTTGGGTTCTAACCTGTTGCAT (site CATAGACCTAT) | 0.213
31 | CAAAGTCCTTGGGTTCTAACCTGTTGCGT (site CAAAGTCCTAT) | 0.932
32 | TAGAAGGCTTGGGTTCTAACCTGTTGCCT (site TAGAAGGCTAT) | 0.325
33 | TCCGTCCCTTGGGTTCTAACCTGTTGCTG (site TCCGTCCCTCA) | 1.57
34 | AGGACCACTTGGGTTCTAACCTGTTGCCA (site ATGACCGCTTG) | 0.0948
35 | GGCATCCCTTGGGTTCTAACCTGTTGCCT (site GGCTTCCCTAG) | 0.145
36 | GAGAAGCCTTGGGTTCTAACCTGTTGCCT (site GAGAAGCCTAG) | 2.12
37 | CAGTGGACTTGGGTTCTAACCTGTTGCCT (site CAGTGGACTAG) | 2.04
38 | GGGTCCTCTTGGGTTCTAACCTGTTGCCT (site GGGTCCTCTAG) | 2.24
39 | TGACCTACTTGGGTTCTAACCTGTTGCCA (site TGACCTACTTG) | 0.133
40 | CATCGGACTTGGGTTCTAACCTGTTGCTA (site CATTGTACTTA) | 0.347
41 | CTCATTCCTTGGGTTCTAACCTGTTGCAT (site CTCATTCCTAA) | 0.0718
42 | GATTCTCCTTGGGTTCTAACCTGTTGCTT (site GATTCTCCTAT) | 0.194
43 | ACTTCTACTTGGGTTCTAACCTGTTGCTA (site ACATCTACTTA) | 0.141
44 | CCATTGTCTTGGGTTCTAACCTGTTGCCG (site GTTAGAACTAA) | 0.128

Row | Sequence | recombinant barcode read abundance (log10)
45 | GTTGCGGCTTGGGTTCTAACCTGTTGCCT (site GTTGCGGCTAG) | 0.898
46 | TATTGGACTTGGGTTCTAACCTGTTGCTT (site TATTGGACTAA) | 0.141
47 | GAATCTACTTGGGTTCTAACCTGTTGCTT (site GATTCTACTAA) | 0.00713
48 | CTGCACCCTTGGGTTCTAACCTGTTGCAG (site GCGCACCCTCT) | 0.0743
49 | ATTAGGGCTTGGGTTCTAACCTGTTGCCG (site ATTAGGGCTCG) | 0.413
50 | GAGGCTCCTTGGGTTCTAACCTGTTGCCT (site GAGGCTCCTTG) | 0.201
51 | ATTAATCCTTGGGTTCTAACCTGTTGCCT (site ATTAATCCTAG) | 0.0839
52 | TCGCGGACTTGGGTTCTAACCTGTTGCCT (site TCACGGACTAG) | 0.464
53 | CTACTAGCTTGGGTTCTAACCTGTTGCAG (site CTACTAGCTGT) | 0.0122
54 | GGTTGTCCTTGGGTTCTAACCTGTTGCGG (site GGTTGACCTCC) | 0.237
55 | TAGAGAGCTTGGGTTCTAACCTGTTGCAG (site TAGGGAGCTAT) | 0.265
56 | GCGCGGCCTTGGGTTCTAACCTGTTGCCT (site GCGCGGCCTAG) | 0.253
57 | GAACCTTCTTGGGTTCTAACCTGTTGCCT (site GAACCTTCTAG) | 0.695
58 | GTCAAGTCTTGGGTTCTAACCTGTTGCTC (site CGACTCCCTAC) | 0.101
59 | CCTTGTACTTGGGTTCTAACCTGTTGCTT (site CCTTGTACTAA) | 0.131
60 | TTGGTACCTTGGGTTCTAACCTGTTGCCT (site TTGGTACCTAG) | 2.41
61 | TACCCGTCTTGGGTTCTAACCTGTTGCTT (site TACCCGTCTAA) | 0.399
62 | GTTGGAGCTTGGGTTCTAACCTGTTGCCT (site GTTAGAGCTAG) | 1.97
63 | CTTTGCCCTTGGGTTCTAACCTGTTGCCT (site CTTTGCCCTAG) | 0.687
64 | GTGAAGCCTTGGGTTCTAACCTGTTGCCT (site CTGAAGCCTAG) | 0.464
65 | AGGAAGACTTGGGTTCTAACCTGTTGCCA (site AGGAAGACTTG) | 0.948
66 | GTGTGAACTTGGGTTCTAACCTGTTGCCG (site GTGTGAACTCG) | 0.992

Row | Sequence | recombinant barcode read abundance (log10)
67 | GTCAAACCTTGGGTTCTAACCTGTTGCTG (site GTCAATCCTCA) | 0.0782
68 | CAGAACACTTGGGTTCTAACCTGTTGCCT (site CAGAACACTAG) | 1.94
69 | CATAGTCCTTGGGTTCTAACCTGTTGCAT (site CATAGGCCTAT) | 0.0509
70 | TCTTAGACTTGGGTTCTAACCTGTTGCGA (site CAAACCTCTGT) | 0.0411
71 | GCGCGGCCTTGGGTTCTAACCTGTTGCCT (site TCGCGGCCTAG) | 0.0177
72 | CAAAGTCCTTGGGTTCTAACCTGTTGCAT (site CAAAGTCCTAA) | 0.191
73 | GTCTCGGCTTGGGTTCTAACCTGTTGCTG (site GTCTCGGCTCA) | 0.0917
74 | CATTTAGCTTGGGTTCTAACCTGTTGCGG (site CATTTAGCTCC) | 1.06
75 | GAGCACCCTTGGGTTCTAACCTGTTGCCA (site GAGCACCCTTG) | 1.77
76 | CAAGTCCCTTGGGTTCTAACCTGTTGCCT (site TAAGTCCCTAG) | 0.211
77 | GTGAGGCCTTGGGTTCTAACCTGTTGCCT (site CTGAGGCCTAG) | 0.151
78 | GCCGAGTCTTGGGTTCTAACCTGTTGCTG (site GCCGAGTCTCA) | 0.564
79 | TAGCATGCTTGGGTTCTAACCTGTTGCAA (site TAGCATGCTAT) | 0.382
80 | CTGTTCCCTTGGGTTCTAACCTGTTGCGG (site CTGCTCCCTCC) | 0.797
81 | GGGGCGGCTTGGGTTCTAACCTGTTGCCT (site GGGGCGTCTAG) | 0.242
82 | TTGAATGCTTGGGTTCTAACCTGTTGCCT (site TTGATTGCTAG) | 0.214
83 | CACACTCCTTGGGTTCTAACCTGTTGCAG (site CAGACGCCTCT) | 0.193
84 | GTCGCGGCTTGGGTTCTAACCTGTTGCCT (site GTCGCGTCTAG) | 0.324
85 | TCCTCTCCTTGGGTTCTAACCTGTTGCTT (site TCCTCTCCTAA) | 0.118
86 | GTGAGTCCTTGGGTTCTAACCTGTTGCGT (site GTTGGTCCTAC) | 0.0363
